Consider 38 compounds from ChEMBL document CHEMBL2375251, “Anticancer activity of novel hybrid molecules containing 5-benzylidene thiazolidine-2,4-dione” (Eur J Med Chem, 2013).

Structures are written as SMILES. A value given as a limit tells only on which side of the number the result lay.

Assay type in all cases: functional, cell-based
The subject of one experiment is HeLa. Kind of experiment: Cytotoxicity against human HeLa cells after 4 days by Coulter counter analysis. Particulars: 96 h.
Another experiment has as its system CCRF-CEM. The experiment can be described thus: Cytotoxicity against human CEM cells after 3 days by Coulter counter analysis. Conditions: 72 h.
The next experiment concerns L1210. The experiment can be described thus: Cytotoxicity against mouse L1210 cells after 2 days by Coulter counter analysis. Particulars: L1210, 48 h.
Another experiment has as its system FM3A. Kind of experiment: Cytotoxicity against mouse FM3A cells after 2 days by Coulter counter analysis. Particulars: 48 h.

As a reminder, the IC50 is the concentration that gives 50% inhibition. A high value points to a need for much substance. For `CN1C(=O)S/C(=C\c2ccc(N)cc2)C1=O`, the concentration for half-maximal inhibition (IC50) was found to be 97 µM in the experiment on HeLa, 62 µM in the experiment on CCRF-CEM, 99 µM in the experiment with L1210 and 107 µM with FM3A.

Take `Nc1ccc(/C=C2\SC(=O)N(Cc3ccc(F)cc3)C2=O)cc1`: the 50% inhibitory concentration (IC50) in the experiment with HeLa amounted to 186 µM; with CCRF-CEM, 111 µM; in the experiment with L1210 it was 24 µM; in the experiment with FM3A it was 36 µM.

As for `C=C(Br)C(=O)Nc1cccc(/C=C2\SC(=O)N(CCc3ccccc3)C2=O)c1`, the concentration for half-maximal inhibition (IC50) with HeLa was 3.5 µM; with CCRF-CEM, 0.94 µM; with L1210, 1.3 µM; in the experiment on FM3A, 2.2 µM.

Consider `C=C(Br)C(=O)Nc1ccc(/C=C2\SC(=O)N(Cc3ccc(C)cc3)C2=O)cc1`, for which the IC50 turned out to be 8.9 µM in the experiment with HeLa, 3.7 µM in the experiment on CCRF-CEM, 3.4 µM in the experiment with L1210 and 6.1 µM with FM3A.

Take `C=C(Br)C(=O)Nc1ccc(/C=C2\SC(=O)N(C)C2=O)cc1`: the concentration for half-maximal inhibition (IC50) worked out at 0.87 µM in the experiment on HeLa, 0.36 µM in the experiment on CCRF-CEM, 0.19 µM in the experiment on L1210 and 0.75 µM with FM3A.

For `Nc1cccc(/C=C2\SC(=O)N(Cc3cccc(F)c3)C2=O)c1`, the 50% inhibitory concentration (IC50) is greater than 250 µM with HeLa, 250 µM with CCRF-CEM, 199 µM with L1210 and greater than 250 µM in the experiment on FM3A.

As to `C=C(Br)C(=O)Nc1cccc(/C=C2\SC(=O)N(Cc3cccc(F)c3)C2=O)c1`, the concentration for half-maximal inhibition (IC50) in the experiment on HeLa was found to be 2.7 µM; with CCRF-CEM, 0.69 µM; in the experiment on L1210 it was 0.59 µM; in the experiment on FM3A, 0.69 µM.

For `C=C(Br)C(=O)Nc1ccc(/C=C2\SC(=O)N(CCc3ccccc3)C2=O)cc1`, the IC50 came out at 4.5 µM in the experiment on HeLa, 4.2 µM with CCRF-CEM, 2.9 µM in the experiment with L1210 and 5.5 µM with FM3A.

Turning to `C=C(Br)C(=O)Nc1cccc(/C=C2\SC(=O)N(Cc3cccc(Cl)c3)C2=O)c1`, the IC50 in the experiment on HeLa turned out to be 2.5 µM; with CCRF-CEM, 1.4 µM; in the experiment with L1210, 1.1 µM; in the experiment with FM3A, 1.7 µM.

With `CCN1C(=O)S/C(=C\c2ccc(N)cc2)C1=O`, the IC50 with HeLa worked out at 108 µM; with CCRF-CEM it was 91 µM; in the experiment on L1210, 82 µM; with FM3A it was 76 µM.

Regarding `Nc1cccc(/C=C2\SC(=O)N(Cc3ccc(Cl)cc3)C2=O)c1`, the IC50 with HeLa was greater than 250 µM; in the experiment with CCRF-CEM it was greater than 250 µM; with L1210 it was 218 µM; in the experiment on FM3A it was 246 µM.

For the compound `Nc1cccc(/C=C2\SC(=O)N(Cc3ccccc3)C2=O)c1`, the IC50 in the experiment on HeLa was greater than 250 µM; in the experiment on CCRF-CEM it was greater than 250 µM; in the experiment with L1210 it was 233 µM; in the experiment with FM3A, greater than 250 µM.

Regarding `C=C(Br)C(=O)Nc1cccc(/C=C2\SC(=O)N(Cc3ccc(C)cc3)C2=O)c1`, the half-inhibitory concentration (IC50) with HeLa amounted to 1.2 µM; in the experiment with CCRF-CEM, 1.2 µM; in the experiment with L1210 it was 0.6 µM; in the experiment on FM3A it was 1 µM.

As to `Nc1ccc(/C=C2\SC(=O)N(Cc3ccc(C(F)(F)F)cc3)C2=O)cc1`, the IC50 in the experiment on HeLa came to 96 µM; in the experiment with CCRF-CEM it was 32 µM; with L1210, 6 µM; in the experiment with FM3A, 134 µM.

Consider `Nc1cccc(/C=C2\SC(=O)N(Cc3cccc(Cl)c3)C2=O)c1`, for which the IC50 in the experiment on HeLa is 250 µM; in the experiment with CCRF-CEM it was 195 µM; with L1210, 211 µM; with FM3A it was 164 µM.

Regarding `C=C(Br)C(=O)Nc1ccc(/C=C2\SC(=O)N(Cc3ccccc3)C2=O)cc1`, the 50% inhibitory concentration (IC50) with HeLa stood at 1 µM; in the experiment on CCRF-CEM, 2.3 µM; in the experiment on L1210, 1.1 µM; in the experiment on FM3A, 3 µM.

With `CC(C)(C)c1ccc(CN2C(=O)S/C(=C\c3cccc(N)c3)C2=O)cc1`, the IC50 was 145 µM in the experiment with HeLa, 165 µM in the experiment with CCRF-CEM, 223 µM with L1210 and 188 µM with FM3A.

For `C=C(Br)C(=O)Nc1ccc(/C=C2\SC(=O)N(Cc3ccc(C(F)(F)F)cc3)C2=O)cc1`, the IC50 is 13 µM with HeLa, 8 µM with CCRF-CEM, 12 µM in the experiment with L1210 and 23 µM in the experiment on FM3A.

In the case of `C=C(Br)C(=O)Nc1cccc(/C=C2\SC(=O)N(Cc3ccc(Cl)cc3)C2=O)c1`, the IC50 amounted to 2.7 µM in the experiment with HeLa, 1.4 µM in the experiment on CCRF-CEM, 0.94 µM with L1210 and 1.6 µM with FM3A.

Consider `Nc1ccc(/C=C2\SC(=O)N(Cc3cccc(F)c3)C2=O)cc1`, for which the half-maximal inhibitory concentration (IC50) was determined as 250 µM in the experiment with HeLa, 116 µM with CCRF-CEM, 100 µM in the experiment on L1210 and 121 µM in the experiment on FM3A.

For `Nc1cccc(/C=C2\SC(=O)N(CCc3ccccc3)C2=O)c1`, the 50% inhibitory concentration (IC50) in the experiment on HeLa came out at 250 µM; in the experiment with CCRF-CEM, 106 µM; in the experiment with L1210 it was 142 µM; with FM3A, 68 µM.

Turning to `Nc1ccc(/C=C2\SC(=O)N(Cc3ccc(Cl)cc3)C2=O)cc1`, the IC50 is 77 µM in the experiment on HeLa, 87 µM with CCRF-CEM, 37 µM in the experiment with L1210 and 60 µM in the experiment with FM3A.

Consider `Nc1ccc(/C=C2\SC(=O)N(Cc3ccccc3)C2=O)cc1`, for which the half-maximal inhibitory concentration (IC50) with HeLa was determined as 46 µM; with CCRF-CEM, 42 µM; with L1210, 38 µM; with FM3A it was 24 µM.

As to `C=C(Br)C(=O)Nc1ccc(/C=C2\SC(=O)N(Cc3ccc(C(C)(C)C)cc3)C2=O)cc1`, the half-inhibitory concentration (IC50) with HeLa was found to be 2.7 µM; in the experiment with CCRF-CEM it was 0.83 µM; in the experiment with L1210, 1.6 µM; in the experiment with FM3A, 4 µM.

For `Nc1cccc(/C=C2\SC(=O)N(Cc3ccc(C(F)(F)F)cc3)C2=O)c1`, the concentration for half-maximal inhibition (IC50) in the experiment on HeLa, with CCRF-CEM, in the experiment on L1210 and in the experiment on FM3A was greater than 250 µM each time.

As to `Nc1ccc(/C=C2\SC(=O)N(Cc3cccc(Cl)c3)C2=O)cc1`, the half-inhibitory concentration (IC50) in the experiment with HeLa stood at 24 µM; with CCRF-CEM, 18 µM; with L1210, 4.7 µM; with FM3A it was 10 µM.

As for `C=C(Br)C(=O)Nc1ccc(/C=C2\SC(=O)N(Cc3ccc(F)cc3)C2=O)cc1`, the 50% inhibitory concentration (IC50) was 2 µM in the experiment with HeLa, 2.4 µM with CCRF-CEM, 2.2 µM in the experiment with L1210 and 4.6 µM with FM3A.

Turning to `Cc1ccc(CN2C(=O)S/C(=C\c3ccc(N)cc3)C2=O)cc1`, the concentration for half-maximal inhibition (IC50) in the experiment on HeLa is greater than 250 µM; in the experiment with CCRF-CEM it was greater than 250 µM; in the experiment on L1210 it was 94 µM; in the experiment with FM3A it was greater than 250 µM.

With `C=C(Br)C(=O)Nc1ccc(/C=C2\SC(=O)N(CC)C2=O)cc1`, the IC50 in the experiment on HeLa was 1.4 µM; with CCRF-CEM it was 0.87 µM; in the experiment on L1210, 0.5 µM; in the experiment on FM3A, 2.3 µM.

For the compound `C=C(Br)C(=O)Nc1ccc(/C=C2\SC(=O)N(Cc3cccc(F)c3)C2=O)cc1`, the concentration for half-maximal inhibition (IC50) is 5.9 µM in the experiment on HeLa, 3.2 µM with CCRF-CEM, 1.2 µM in the experiment on L1210 and 4 µM with FM3A.

As to `C=C(Br)C(=O)Nc1ccc(/C=C2\SC(=O)N(Cc3cccc(Cl)c3)C2=O)cc1`, the IC50 stood at 8.9 µM in the experiment on HeLa, 3.7 µM in the experiment with CCRF-CEM, 3.4 µM in the experiment on L1210 and 6.1 µM with FM3A.

For the compound `CC(C)(C)c1ccc(CN2C(=O)S/C(=C\c3ccc(N)cc3)C2=O)cc1`, the IC50 amounted to 53 µM in the experiment on HeLa, 66 µM in the experiment with CCRF-CEM, 94 µM in the experiment with L1210 and 80 µM with FM3A.

As to `Nc1cccc(/C=C2\SC(=O)N(Cc3ccc(F)cc3)C2=O)c1`, the IC50 turned out to be 86 µM in the experiment with HeLa, 87 µM in the experiment on CCRF-CEM, 142 µM with L1210 and 140 µM with FM3A.

Take `N[C@@H](Cc1ccc(N(CCCl)CCCl)cc1)C(=O)O` [MELPHALAN]: the figures for the concentration for half-maximal inhibition (IC50) with CCRF-CEM and in the experiment on FM3A were 3.5 µM and 3.6 µM, respectively.

For the compound `C=C(Br)C(=O)Nc1ccc(/C=C2\SC(=O)N(Cc3ccc(Cl)cc3)C2=O)cc1`, the half-maximal inhibitory concentration (IC50) in the experiment on HeLa is 2.3 µM; in the experiment on CCRF-CEM it was 2.8 µM; with L1210, 3.4 µM; in the experiment with FM3A, 5.1 µM.

`Nc1ccc(/C=C2\SC(=O)N(CCc3ccccc3)C2=O)cc1`: the half-maximal inhibitory concentration (IC50) with HeLa is greater than 250 µM; with CCRF-CEM, greater than 250 µM; in the experiment with L1210, 217 µM; with FM3A it was 215 µM.

For the compound `C=C(Br)C(=O)Nc1cccc(/C=C2\SC(=O)N(Cc3ccc(C(C)(C)C)cc3)C2=O)c1`, the IC50 was found to be 2.8 µM in the experiment with HeLa, 3 µM in the experiment with CCRF-CEM, 3.2 µM with L1210 and 5.2 µM in the experiment with FM3A.

For `Cc1ccc(CN2C(=O)S/C(=C\c3cccc(N)c3)C2=O)cc1`, the IC50 was 98 µM in the experiment with HeLa, greater than 250 µM with CCRF-CEM, 176 µM with L1210 and 158 µM in the experiment with FM3A.
